In patent publication US20060166236A1, “Allosteric enzyme coupled immunoassay (AECIA)” (priority 2004, published 2006):

What was measured:
[1] = target: T1, potato tuber PPi-PFK (pyrophosphate-dependent fructose-6-phosphate kinase, EC2.7.1.90) (Solanum tuberosum, UniProt P21342+P21343); assay: Stimulation assay of potato tuber PPi-PFK by Fructose 2,6 Pi; format: biochemical; conditions: in the presence of 1 mM fructose 6-phosphate and 2.5 mM PPi; FIG. 3; read-out: half-maximal effect (activation of potato tuber PPi-PFK)
T1 construct: Peeled potato tubers (330 g) were homogenized in a blendor; from tissue; host or cells: potato tubers
T1 sequence (P21342 1-616): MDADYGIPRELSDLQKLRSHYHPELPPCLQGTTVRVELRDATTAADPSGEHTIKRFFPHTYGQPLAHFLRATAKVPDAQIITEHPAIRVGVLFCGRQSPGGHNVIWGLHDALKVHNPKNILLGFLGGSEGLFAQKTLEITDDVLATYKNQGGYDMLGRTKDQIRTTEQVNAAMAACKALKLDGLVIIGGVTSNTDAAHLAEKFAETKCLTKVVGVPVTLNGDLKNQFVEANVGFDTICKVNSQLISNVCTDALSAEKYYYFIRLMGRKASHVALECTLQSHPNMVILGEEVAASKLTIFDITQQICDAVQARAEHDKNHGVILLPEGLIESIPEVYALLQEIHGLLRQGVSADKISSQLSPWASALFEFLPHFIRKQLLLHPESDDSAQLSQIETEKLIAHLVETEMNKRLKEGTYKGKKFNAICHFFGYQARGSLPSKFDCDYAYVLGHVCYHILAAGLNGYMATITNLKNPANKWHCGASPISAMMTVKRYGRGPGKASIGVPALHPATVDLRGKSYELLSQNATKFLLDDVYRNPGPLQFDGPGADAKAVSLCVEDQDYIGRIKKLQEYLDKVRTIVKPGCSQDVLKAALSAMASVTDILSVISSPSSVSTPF
T1 sequence (P21343 1-569): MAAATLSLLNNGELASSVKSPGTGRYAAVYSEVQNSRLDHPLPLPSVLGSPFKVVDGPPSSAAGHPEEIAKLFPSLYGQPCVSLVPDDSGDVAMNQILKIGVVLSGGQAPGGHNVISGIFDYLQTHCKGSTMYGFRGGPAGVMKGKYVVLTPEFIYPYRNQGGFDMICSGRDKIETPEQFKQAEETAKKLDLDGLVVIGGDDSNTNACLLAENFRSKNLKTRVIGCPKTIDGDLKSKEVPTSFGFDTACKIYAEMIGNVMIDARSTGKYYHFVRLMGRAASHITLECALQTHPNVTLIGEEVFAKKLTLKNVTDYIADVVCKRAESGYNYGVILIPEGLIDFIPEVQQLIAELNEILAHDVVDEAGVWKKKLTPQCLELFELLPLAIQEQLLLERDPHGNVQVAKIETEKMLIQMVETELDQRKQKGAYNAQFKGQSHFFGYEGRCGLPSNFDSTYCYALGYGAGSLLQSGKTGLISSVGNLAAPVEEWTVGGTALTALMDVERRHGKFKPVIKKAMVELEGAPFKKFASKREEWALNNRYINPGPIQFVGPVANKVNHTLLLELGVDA
Method: Potato tubers PPi-PFK was purified according to the procedure described in Van Schafingen et al., Eur. J. Biochem., 129:191-195 (1982). Peeled potato tubers (330 g) were homogenized in a blendor with 2 volume of ice-cold 20 mM Hepes pH8.2 containing 20 mM potassium acetate and 2 mM dithiothreitol. The homogenate was filtered through cheese cloth. Solid sodium pyrophosphate and 1 mM MgCl2 were added to the filtrate to reach 2 mM and the pH was adjusted to 8.2 at 0° C. The mixture was brought to 59° C. by shaking in a water bath adjusted to 70° C. and maintained for 5 min in a water bath at 59° C.; it was then cooled and brought to pH 7.1 at 0° C. All subsequent steps were carried out at 0-4° C. Six (6) g of poly(ethylene glycol) 6000 were added per 100 ml of solution and after mixing for 15 min, the preparation was allowed to stand for 10 min and then centrifuged for 10 min at 4000×g; 8 g of poly(ethylene glycol) were then added per 100 ml of the resulting supernatant (700 ml) which was mixed and centrifuged as described above. The resulting pellet was dissolved in 40 ml of a solution containing 20 mM Tris, pH8.2, 20 mM KCl, and 2 mM dithiothreitol and applied to a column (25×120 mm) of DEAE-cellulose equilibrated with the same buffer. The column was washed with 100 ml of buffer and developed with a gradient of KCl (20-400 mM) in the same dithiothreitol/Tris buffer. […]

[2] = target: T2, rat liver PFK (ATP-dependent fructose-6-phosphate kinase, EC2.7.1.11) (Rattus norvegicus, UniProt P30835); assay: Stimulation assay of rat liver phosphofructokinase by Fructose 2,6 Pi; format: biochemical; conditions: in the presence of 2 mM fructose 6-phosphate and 1 mM AMP; pH 7.1, 22° C.; 3 mM ATP; FIG. 4; read-out: half-maximal effect (activation of rat liver PFK)
T2 construct: Fresh livers from rats were homogenized in a homogenizer with 3 volumes of chilled buffer; from tissue; host or cells: rat liver
T2 sequence (P30835 1-780): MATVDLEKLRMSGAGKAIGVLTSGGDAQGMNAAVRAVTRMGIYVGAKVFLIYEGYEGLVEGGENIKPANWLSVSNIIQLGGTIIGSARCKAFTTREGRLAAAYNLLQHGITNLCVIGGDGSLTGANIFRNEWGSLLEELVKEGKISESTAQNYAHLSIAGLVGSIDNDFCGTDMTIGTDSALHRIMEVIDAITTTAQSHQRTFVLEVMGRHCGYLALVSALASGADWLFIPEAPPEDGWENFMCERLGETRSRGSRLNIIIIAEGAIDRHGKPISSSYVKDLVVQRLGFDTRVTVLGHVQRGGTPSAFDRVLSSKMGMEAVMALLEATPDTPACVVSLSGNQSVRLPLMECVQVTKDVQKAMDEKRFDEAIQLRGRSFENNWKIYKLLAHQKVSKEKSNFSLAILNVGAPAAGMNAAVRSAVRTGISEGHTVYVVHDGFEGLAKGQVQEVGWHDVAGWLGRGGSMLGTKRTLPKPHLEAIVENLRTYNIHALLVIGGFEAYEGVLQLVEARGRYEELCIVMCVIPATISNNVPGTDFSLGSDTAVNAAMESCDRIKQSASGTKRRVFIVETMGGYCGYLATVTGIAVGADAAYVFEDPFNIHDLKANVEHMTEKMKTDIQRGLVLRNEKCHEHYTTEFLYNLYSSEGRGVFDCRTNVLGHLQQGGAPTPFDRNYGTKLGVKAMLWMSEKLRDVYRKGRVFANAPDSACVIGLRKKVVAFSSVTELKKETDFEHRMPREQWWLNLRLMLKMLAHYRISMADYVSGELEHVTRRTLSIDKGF
Method: ATP-dependent fructose-6-phosphate kinase (EC2.7.1.11) was purified from rat livers according to the procedures described in Reinhart and Lardy., Biochemistry, 19:1477-1484 (1980). The purification procedure includes a heat step, ammonium sulfate precipitation, and DEAE ion-exchange and gel filtration chromatography as follows:
The assay was performed at pH 7.1 and 22° C. The incubation mixture contained 100 mM KCl, 1 mM NH4Cl, 0.15 mM NADH, 50 mM Hepes buffer, 50 μg/ml aldolase, 10 μg/ml glycerol-3-phosphate dehydrogenase, 1 μg/ml triose phosphate isomerase, 5 mM MgCl2, 1 mM AMP, 2 mM fructose 6-phosphate, and 0.2 mM Pi. The reaction was initiated by adding 3 mM ATP.

EC50 [1]: ~5.5 nM
EC50 [2]: ~40 nM
Compound: O=P(O)(O)OCC1OC(CO)(OP(=O)(O)O)C(O)C1O (centres unmarked) [fructose 2, 6 Pi, fructose-2,6-bisphosphate]
